Results reported in patent US20130005811A1, “ANTIMICROBIAL TREATMENT FOR SEEDS AND SPROUTS” (priority 2010, published 2013).
Several values for one entry are separate records, joined by “and”; a condition that tells them apart may be missing. Identical values can stand only once. Marks after values point to notes of the source that are not given here.

Experiments:
[1] = system: S. typhimurium DT 104; experiment: Inactivation of S. typhimurium DT 104 on alfalfa seeds inoculated with 10^8 CFU/g; format: cell-based, Salmonella typhimurium DT104
Method: Five isolates of Escherichia coli O157:H7, including strain 932 (human isolate), E009 (beef isolate), E0018 (cattle isolate), E0122 (cattle isolate), E0139 (deer jerky isolate); and five isolates of Salmonella typhimurium DT104, including strain H2662 (cattle isolate), 11942A (cattle isolate), 13068A (cattle isolate), 152N17-1 (dairy isolate) and H3279 (human isolate) were used. Nalidixic acid-resistant (50 μg/ml) E. coli O157:H7 were used to facilitate enumeration. Each E. coli O157:H7 and Salmonella strain was grown in tryptic soy broth (TSB, Beckon Dickinson, Sparks, Md.) at 37° C. for 18 hr. Approximately equal cell numbers of each of the five strains were combined and used as a 5-strain mixture with cell numbers being adjusted by spectrophotometric (Spectronic Instruments, Rochester, N.Y.) determination as described in Zhao et al., (2009) J. Food Prot. 72: 928-936, incorporated herein by reference in its entirety. Bacterial cell numbers were confirmed by plating 0.1 ml of serial dilutions (1:10) in 0.1% peptone on tryptic soy agar (TSA, Beckon Dickinson) and Sorbitol MacConkey agar (SMA, Oxoid, Hampshire, UK) for E. coli O157:H7, and TSA and XLD agar (Beckon Dickinson) for Salmonella and incubating all plates at 37° C. for 24 hr, after which colonies were counted.
Levulinic acid (0.5%) and 0.05% sodium dodecyl sulfate (SDS) obtained from Sigma-Aldrich (St. Louis, Mo.) were tested in combination at 21±2° C. for their antimicrobial activity to E. coli O157:H7 and S. typhimurium on alfalfa seeds as a wash treatment. Calcium hypochlorite (Arch Chemicals, Smyrna, Ga.) at 20,000 μg/ml (ppm) was used as the positive control, and deionized water was used as the negative control.
Before each trial, 25 ml of sterile tap water and 25 g of alfalfa seeds were added to a WHIRL-PAK® bag (Nasco, Fort Atkinson, Wis.) and pummeled in a stomacher blender at 150 rpm for 1 min. Duplicate 0.1 ml portions of the contents were plated on SMA, XLD, and TSA plates to detect E. coli O157:H7 and Salmonella, and enumerate aerobic bacteria counts according to the protocols described below. Only E. coli O157:H7-negative and Salmonella-negative alfalfa seeds were used. Dry seeds (50 g) were individually placed in a sterilized glass beaker (1 L) and 5 ml of a mixture of E. coli O157:H7 or S. typhimurium DT 104 (high inocula at 10^8-10^9 CFU/ml and low inocula at 10^3-10^4 CFU/ml) was inoculated on the surface of the seeds in each glass beaker under a laminar flow hood. A sterile plastic spoon was used to mix for 2 min the seeds with bacterial suspension. The glass beakers were held in a laminar flow hood for 1 hr, 4 hr, 24 hr, 48 hr, and 72 hr with intermittent mixing by plastic spoon before use for chemical treatment.
Inactivation of E. coli O157:H7 and Salmonella on Alfalfa Seeds: Inoculated, dried alfalfa seeds (50 g samples) were placed in a 1000 ml glass beaker containing 200 ml of treatment solution and agitated by a magnetic stir bar at 150 ppm at 21° C. for 0, 1, 2, 5, 10, 20, 30, and 60 min. Following treatment, 25 g of seeds was placed in a stomacher bag containing 25 ml 0.1M phosphate buffer, pH 7.2 (PBS) for levulinic acid plus SDS-treated seeds or neutralizing buffer (50×) for calcium hypochlorite-treated seeds and pummeled for 1 min. at 150 rpm in a stomacher blender (Seward, Ltd., Worthing, England). The suspension was serially (1:10) diluted in 0.1% peptone water and 0.1 ml of each dilution was surface-plated in duplicate onto TSA and Sorbitol MacConkey agar containing 50 μg nalidixic acid/ml (TSA-NA and SMA-NA) for E. coli O157:H7, and on TSA and XLD containing ampicillin (32 μg/ml), tetracycline (16 μg/ml) and streptomycin (64 μg/ml) (TSA+ and XLD+) for S. typhimurium DT 104. All plates were incubated at 37° C. for 48 hr.

[2] = system: alfalfa seeds; experiment: Determination of alfalfa seed germination percentage; format: in vivo; conditions: for Germination rate, average: average of 3 replicas
Method: Treated and non-treated seeds (5 g or number of seeds counted per replicate) were placed on the surface of a plastic tray. Three plastic trays were stacked vertically and top tray was filled with 100 ml of sterile deionized water or tap water which fed to the lower trays to maintain uniform moisture content for the seeds. The seeds were incubated at 22° C. for 72 hr. Each evaluation was based on three replicates of 200-400 seeds each. A seed was considered to have germinated if the seed coat was broken and a visible sprout was extending at least 8 mm from the original seed. Swollen seeds or ruptured seeds with sprout tissue still inside were not counted as germinated, because such seeds rarely sprouted completely after an additional 24 hr of incubation.

[3] = treatment for 1 h at 21° C., Ca(OCl)2 pH 11.4

[Ca+2].[O-]Cl.[O-]Cl [20,000 ppm, Ca(OCl)2, pH 11.4, Calcium hypochlorite]
S. typhimurium DT 104 counts in seeds ([1]; dried for 4 hr, treated for 0 min (actual time 0 delayed by 20 to 30 seconds)): +^b (below the minimum detection level by direct plating (<0.7 log CFU/ml), but positive by enrichment culture.)
S. typhimurium DT 104 counts in seeds ([1]; dried for 4 hr, treated for 1 min): −^c
S. typhimurium DT 104 counts in seeds ([1]; dried for 4 hr, treated for 2 min): −
S. typhimurium DT 104 counts in seeds ([1]; dried for 4 hr, treated for 5 min): −
S. typhimurium DT 104 counts in seeds ([1]; dried for 4 hr, treated for 10 min): −
S. typhimurium DT 104 counts in seeds ([1]; dried for 4 hr, treated for 20 min): −
S. typhimurium DT 104 counts in seeds ([1]; dried for 4 hr, treated for 30 min): −
S. typhimurium DT 104 counts in seeds ([1]; dried for 4 hr, treated for 60 min): −
S. typhimurium DT 104 counts in seeds ([1]; dried for 24 hr, treated for 0 min): + (below the minimum detection level by direct plating (<0.7 log CFU/ml), but positive by enrichment culture.)
S. typhimurium DT 104 counts in seeds ([1]; dried for 24 hr, treated for 1 min): + (below the minimum detection level by direct plating (<0.7 log CFU/ml), but positive by enrichment culture.)
S. typhimurium DT 104 counts in seeds ([1]; dried for 24 hr, treated for 2 min): −
S. typhimurium DT 104 counts in seeds ([1]; dried for 24 hr, treated for 5 min): −
S. typhimurium DT 104 counts in seeds ([1]; dried for 24 hr, treated for 10 min): −
S. typhimurium DT 104 counts in seeds ([1]; dried for 24 hr, treated for 20 min): −
S. typhimurium DT 104 counts in seeds ([1]; dried for 24 hr, treated for 30 min): −
S. typhimurium DT 104 counts in seeds ([1]; dried for 24 hr, treated for 60 min): −
S. typhimurium DT 104 counts in seeds ([1]; dried for 48 hr, treated for 0 min): + (below the minimum detection level by direct plating (<0.7 log CFU/ml), but positive by enrichment culture.)
S. typhimurium DT 104 counts in seeds ([1]; dried for 48 hr, treated for 1 min): + (below the minimum detection level by direct plating (<0.7 log CFU/ml), but positive by enrichment culture.)
S. typhimurium DT 104 counts in seeds ([1]; dried for 48 hr, treated for 2 min): −
S. typhimurium DT 104 counts in seeds ([1]; dried for 48 hr, treated for 5 min): −
S. typhimurium DT 104 counts in seeds ([1]; dried for 48 hr, treated for 10 min): + (below the minimum detection level by direct plating (<0.7 log CFU/ml), but positive by enrichment culture.)
S. typhimurium DT 104 counts in seeds ([1]; dried for 48 hr, treated for 20 min): −
S. typhimurium DT 104 counts in seeds ([1]; dried for 48 hr, treated for 30 min): −
S. typhimurium DT 104 counts in seeds ([1]; dried for 48 hr, treated for 60 min): −
S. typhimurium DT 104 counts in seeds ([1]; dried for 72 hr, treated for 0 min): −
S. typhimurium DT 104 counts in seeds ([1]; dried for 72 hr, treated for 1 min): −
S. typhimurium DT 104 counts in seeds ([1]; dried for 72 hr, treated for 2 min): −
S. typhimurium DT 104 counts in seeds ([1]; dried for 72 hr, treated for 5 min): −
S. typhimurium DT 104 counts in seeds ([1]; dried for 72 hr, treated for 10 min): −
S. typhimurium DT 104 counts in seeds ([1]; dried for 72 hr, treated for 20 min): + (below the minimum detection level by direct plating (<0.7 log CFU/ml), but positive by enrichment culture.)
S. typhimurium DT 104 counts in seeds ([1]; dried for 72 hr, treated for 30 min): + (below the minimum detection level by direct plating (<0.7 log CFU/ml), but positive by enrichment culture.)
S. typhimurium DT 104 counts in seeds ([1]; dried for 72 hr, treated for 60 min): −
Salmonella detection after treatment ([1]; seeds dried for 4 hr, after 5 min of treatment): no detectable Salmonella
Salmonella detection after treatment ([1]; seeds dried for 24 hr, 48 hr, or 72 hr, treated for 5 min): levels only detectable by selective enrichment culture
Effect on alfalfa seed germination ([2]; 1 hr at 21° C., compared to tap water): substantially reduced germination percentage
Germination rate, average [2, 3]: 47%
Germination rate, average ([2]; treatment for 1 h at 21° C., listed as 20,000 ppm calcium hypochlorite): 47.3%
Germination rate, average ([2]; treatment for 1 h at 21° C., row): 47%
Germination Ratio (Percentage), per replica [2, 3]: 62% and 34% and 46%
Germination Ratio (germinated/total seeds), per replica [2, 3]: 124/200 and 68/200 and 92/200
